Experimental findings from ChEMBL document CHEMBL1201862, “PubChem BioAssay data set” (2004) are described below.

Common to all, as to assay: DTP human tumour cell line panel, 48 h
Test [1] has as its system ACHN.
For test [2], the system named is CAKI-1.
In test [3] the test system is EKVX.
The test system of test [4] is K562.
The test system of test [5] is KM12.
Test [6] has as its system LOX IMVI.
In test [7] the test system is NCI-H226.
In test [8] the test system is NCI-H460.
Test [9] has as its system OVCAR-3.
In test [10] the test system is OVCAR-8.
Test [11] has as its system RPMI-8226.
For test [12], the system named is RXF 393.
Test [13] concerns SF-295.
Test [14] concerns SK-OV-3.
The test system of test [15] is SNB-19.
Test [16] has as its system SR.
Test [17] has as its system SW-620.
Test [18] has as its system UO-31.
Test [19] deals with HOP-92.

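Tested at 5 concentrations; 48 h exposure; 96-well plates; endpoints linearly interpolated, else capped at highest concentration. GI50 = concentration required for 50% inhibition of growth.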 Calls of active or inactive are those of the source. Cut-off read from the data, not from the text of the source: active = GI50 up to about 1.1 µM and inactive = higher.

In general, GI50 refers to the concentration giving 50% growth inhibition. As for `N#CC(=N)c1ncn(CCO)c1NC(=O)C(F)(F)F`, the GI50 in [1], in [2], in [3], in test [4], in [5] and in test [6] was > 100 µM (inactive) in each case. For the same molecule, the GI50 in test [7], in test [8], in test [9], in test [10], in test [11] and in test [12] was > 100 µM (inactive) throughout. The GI50 in test [13], in test [14], in test [15], in [16] and in test [17] was > 100 µM (inactive) in each case.
Consider `O=[N+]([O-])C(=C(N1CCOCC1)N1CCOCC1)/C(Cl)=C(\Cl)[N+](=O)[O-]`, for which the GI50 was 6.31 µM (inactive) in test [1]; 1.64 µM (inactive) in test [2]; 8.73 µM (inactive) in test [3]; 3.69 µM (inactive) in test [4]; 16.3 µM (inactive) in test [5]; 2.15 µM (inactive) in test [6]. The GI50 in [7] was 47 µM (inactive); in [8], 25.2 µM (inactive); in test [9] it was 4.54 µM (inactive); in [11] it was 2.31 µM (inactive); in [12], 1.77 µM (inactive); in test [13], 18 µM (inactive). Besides, the GI50 is 52.7 µM (inactive) in test [14]; 25.8 µM (inactive) in test [15]; 8.77 µM (inactive) in test [16]; 2.23 µM (inactive) in [17]; 6.71 µM (inactive) in [18].
Regarding `CC12CCCC(O)C1CCC1=CC3(CCC12)SCCS3` (stereo not drawn), the GI50 in test [1], in test [2], in [19], in test [4], in test [5] and in test [6] was > 10 µM (inactive) each time. Further, the GI50 in [9], in test [10], in test [11], in test [13], in test [14] and in test [15] was > 10 µM (inactive) in each case. For the same molecule, the GI50 in test [16] and in test [17] was > 10 µM (inactive) throughout.
Turning to `C1CSCCSS[C@@H]2CCCCC2SC1` (stereo partly drawn), the GI50 in [3] is > 100 µM (inactive); in test [19], 29.2 µM (inactive); in [4], > 100 µM (inactive); in test [5] it was > 100 µM (inactive); in [6], > 100 µM (inactive); in test [8], > 100 µM (inactive). Besides, the GI50 in test [9], in [10], in test [13], in [14], in test [15] and in test [16] was > 100 µM (inactive) each time. The GI50 in [17] is > 100 µM (inactive); in [18], 78.9 µM (inactive).
Take `Cn1c(=O)c2c(nc3n2CCC(=O)N3CCCCl)n(C)c1=O`: the GI50 in test [1], in test [3], in [19], in test [4], in [5] and in [6] was > 100 µM (inactive) in each case. For the same molecule, the GI50 in test [7], in test [8], in test [9], in test [10], in test [11] and in [13] was > 100 µM (inactive) each time. Also, the GI50 in test [14], in test [15], in test [16], in test [17] and in test [18] was > 100 µM (inactive) throughout.
With `COc1ccc([C@@]23OC[C@@H]4[C@@H](OC[C@@H]42)c2cc(OC)c(OC)cc23)cc1OC`, the GI50 in test [1], in test [2], in [3], in test [4], in test [5] and in [6] was > 100 µM (inactive) in each case. The GI50 in test [7], in [8], in test [9], in test [11], in [12] and in test [13] was > 100 µM (inactive) in each case. For the same molecule, the GI50 in [14], in [15], in test [16], in test [17] and in [18] was > 100 µM (inactive) throughout.
Consider `CC1(C)c2ccccc2C(=O)C12CCC(=O)CC2`, for which the GI50 in test [1], in [2], in test [3], in test [4], in [5] and in [6] was > 100 µM (inactive) throughout. The GI50 in test [7] was > 100 µM (inactive); in [8], > 100 µM (inactive); in [10] it was > 100 µM (inactive); in [12], 12.4 µM (inactive); in test [13], > 100 µM (inactive); in [14], > 100 µM (inactive). Further, the GI50 in test [15] was > 100 µM (inactive); in test [16], > 100 µM (inactive); in [17], > 100 µM (inactive); in test [18], 33.7 µM (inactive).
Take `COc1ccc(P2(=S)OCCOP(=S)(c3ccc(OC)cc3)S2)cc1` (stereo not drawn): the GI50 in [1] was 5.98 µM (inactive); in test [2], 2.31 µM (inactive); in test [3], > 21.8 µM (inactive); in test [19], 10.4 µM (inactive); in test [4], 2.51 µM (inactive); in [5], 2.87 µM (inactive). Besides, the GI50 is 2.84 µM (inactive) in test [6]; 5.16 µM (inactive) in [7]; 2.65 µM (inactive) in test [8]; 2.52 µM (inactive) in test [9]; 3.47 µM (inactive) in test [10]; 2.53 µM (inactive) in test [13]. The GI50 was 3.71 µM (inactive) in test [15], 3.6 µM (inactive) in test [16], 4.54 µM (inactive) in test [17] and 0.638 µM (active) in test [18].
As for `COc1cc(OCc2ccc3nc(-c4ccccc4)c(Cl)nc3c2)cc(OC)c1OC`, the GI50 in test [1] is 32.3 µM (inactive); in test [2], 24.8 µM (inactive); in test [3] it was 59.2 µM (inactive); in test [19], 8.71 µM (inactive); in [5], > 100 µM (inactive); in test [6], > 100 µM (inactive). The GI50 in test [8] was 90.2 µM (inactive); in test [9] it was > 100 µM (inactive); in [10], > 100 µM (inactive); in test [11] it was > 100 µM (inactive); in [13], 37.4 µM (inactive); in test [15] it was 52.7 µM (inactive). Also, the GI50 in [16], in [17] and in test [18] was > 100 µM (inactive) in each case.
